Molecules are shown by their SMILES. Entries after “also recorded” stand apart in the source; their conditions may differ.

In one assay the target is T1, Cdk2(ES) (Homo sapiens, UniProt P24941, C177A/F80C).
T1 construct: GST (N, cleaved yes); made in house; host or cells: E. coli Tuner(DE3)
The assay can be described thus: intact-protein mass spectrometry of covalent modification. The conditions noted are these: 0.5 mM acrylamide; 2 h for acrylamide 1. The class given is binding. An excerpt: To orthogonally validate the results from the qIT assay, we undertook a mass spectrometric study to obtain a direct measurement of both the extent and site of covalent fragment modification. […] To confirm C80 as the site of modification, the 1‐Cdk2(ES) complex was digested with trypsin and the resulting peptides analysed by MALDI mass spectrometry. […] Tandem mass spectrometric analysis of this ion enabled confirmatory sequencing of the peptide and unambiguous assignment of C80 as the site of modification (Figure 4b).
See High-Throughput Kinetic Analysis for Target-Directed Covalent Ligand Discovery for full library details.4 In brief, Acryla-mide fragments were synthesized from amine precursors; 14,000 primary and secondary amines were selected from Enamine’s commercial collection with molecular weight < 250 Da, from which 235 unique Bemis-Murcko frameworks were generated.[5] […] The physiochemical properties of the final library were calculated using DataWarrior[6] and found to broadly comply with the ‘Rule of 3’ guidelines. […]
Reaction-plate setup: Each well of a 96-well PCR plate was charged with 60–100 µL of target thiol (GSH or protein, 10 µM) and 4% w/v TCEP-agarose beads in 100 mM phosphate buffer (pH 7.5 or 8) and cooled to 4 °C. […] For each time point, the fluorescence of each reaction was normalized relative Cdk2(ES)/GSH only control = maximum signal, DMSO only = minimum signal. […]

Assay [1] can be described thus: qIT: rate of reaction with glutathione (intrinsic reactivity). The class given is physicochemical. The conditions noted are these: fragment 0.5 mM, glutathione 5 μM. The method, then:
Previously we described a fluorescence‐based platform for screening cysteine‐targeting covalent fragments called quantitative irreversible tethering (qIT). ^[19] The method measures and compares the rate of reactions of individual fragments with the protein‐of‐interest (POI) and GSH (Figure 2a and b).
Figure 2 Comparison of previous and current applications of Quantitative irreversible tethering (qIT). a) Overview of rate determination. A cysteine‐containing biomolecule is treated with covalent fragments under pseudo‐first‐order conditions. Reaction progress is followed by discrete measurement of free cysteine concentration by using the fluorogenic probe CPM, and rate constants (k obs) are derived from exponential regression analysis. b) Comparison of the reactivity profile of each fragment with the POI and GSH typically classes them as unreactive, reactive but non‐selective or reactive and selective. c) Quantification of kinetic POI/GSH selectivity facilitates hit identification. d) The observed rate of reaction between the POI and hit fragment is determined at a range of ligand concentrations by using qIT. Subsequent hyperbolic regression analysis is used to derive K i and k inact to facilitate comprehensive covSAR analysis. […]

As to `C=CC(=O)Nc1ccc(-c2ncccn2)cc1` [S1], on Cdk2(ES), the “covalent modification of Cdk2(ES)” value was “complete mono‐modification”.
On to `C=CC(=O)N1CCCc2cc(C(=O)OC)ccc21` [compound 1], for which, in assay [1], the “GSH: kobs/[I]” value stood at 0.02 M⁻¹ s⁻¹. Also, the “covalent modification of Cdk2(ES)” value at Cdk2(ES) is “fully modifies; also recorded: complete mono‐modification”.
